Data on eight molecules can be found in US8410094B2, “Amide compounds, their pharmaceutical compositions, their preparation method and their uses” (Shanghai Institute of Materia Medica, Chinese Academy of …, priority 2008, dated 2013).

One assay has as its target T1, CCR5 (Homo sapiens, UniProt P51681).
T1 construct: expressed in transfected cells
The experiment in a line: Inhibition of CCR5: [35S]GTPγS binding assays (filtration, SPA-WGA) and calcium influx assay, 10 nM RANTES, CHO-CCR5. The assay is classed as biochemical. The following applies: for IC50: inhibition of GTPγS binding induced by 10 nM RANTES, CHO-CCR5; for inhibition against CCR5 (class symbol in IC50 column): class by inhibition at 30 nM or 300 nM. How it is done: CCR5 belongs to G-Protein-Coupled Receptor (GPCR) family. The developing technology of GPCR-based drugs have been well-developed, among them, the experimental techniques such as ligand-receptor binding assay, GTPγS binding assay and Ca^2+ flux assay have been widely used in drug-screening related to chemokine receptors. The inhibitory activities of the compounds according to the present invention against CCR5 are measured by three methods, i.e., [^35S]GTPγS filter binding assay, SPA-WGA-based [^35S]GTPγS binding assay and calcium influx assay. At the same time, the antiviral activities in cell of the compounds according to the present invention are evaluated by using two kinds HIV-1 subtypes: H4DA5 cell model and PBMC system virus replication model.
A. [^35S]GTPγS Binding Assay
After binding with an agonist, CCR5 experiences a conformation change such that CCR5 interacts with G protein so as to active the G protein. G protein is a tripolymer composed of α-subunit and βγ-subunit. Since the ability of α-subunit binding to GTP depends on the interaction of CCR5 with the agonist, the ability of an agonist for activating CCR5 can be reflected by determining the amount of GTP binding to α-subunit. In a GTPγS binding assay, a ^35S-labeled GTP analogue GTPγS, which can bind with an activated α-subunit without being hydrolyzed, is used to replace GTP in order for eliminating the defect that the amount of GTP binding to G protein can not exactly reflect the activation of CCR5 due to the hydrolysis of GTO by GTPase and for convenience of detection. So, α-subunit binds with GDP when CCR5 is not activated, and after the activation of CCR5, α-subunit binds with GTPγS such that GTPγS irreversible binds to α-subunit. Therefore, the amount of [^35S]-GTPγS binding to α-subunit could reflect the level of CCR5 activated by an agonist. The ability of the agonist for activating CCR5 will decrease when an antagonist is added.
Such experiment has been referred to as GTPγS filtration assay in which [^35S]-GTPγS bound with the free G protein could be separated by membrane filtration.
Alternatively, SPA (Scintillation Proximity Assay) technique can be used to detect the [^35S]-GTPγS bound to G protein, which is called SPA-WGA-based [35S]GTPγS binding assay. The principle of SPA technique is as follows. Sub-atomic particles released during the decay of radioactive atoms, for example β-ray (electron), can excite microspheres at a sufficiently close distance to emit light so as to be detected by a Scintillation Counter. In an aqueous solution, most of the energy of these rays is absorbed by the solvent, and the traveling distance of these rays is limited.
The activation of G protein by CCR5 is determined by the following experiments.
CHO (Chinese hamster ovary cell) permanent cell line expressing CCR5 (CHO-CCR5) (a cell line constructed by Shanghai Targetdrug Ltd.) was lysed with a lysis buffer (5 mM Tris-HCl, pH 7.5, 5 mM EDTA and 5 mM EGTA) and then centrifugated at 15,000×g for 10 min to obtain cell membrane. After the cell membrane was resuspended in a reaction buffer (5 mM Tris-HCl, pH 7.5, 5 mM MgCl2, 1 mM EGTA, 100 mM NaCl), the protein concentration was determined using Bioford Protein Assay Kit manufactured by Bio-Rad Laboratories Inc. Subsequently, GTPγS binding assay was performed in the reaction buffer, wherein the reaction system was 100 μL containing 10 μg membrane protein, 40 μM GDP and 0.5 nM [^35S]-GTPγS (1200 Ci/mmol). After the compound to be tested (the compound was first dissolved in DMSO and then diluted in gradient with the reaction buffer according to the specific situation, wherein the final concentration of DMSO was 1% (v/v) in the whole reaction system) was added and shaken to mix homogeneously, the reaction tube was incubated at 30° C. for 1 hour. After the reaction finished, the tube was placed on ice, and the reaction mixture was diluted with PBS to quench the reaction and filtered under reduced pressure with a GF/C filter membrane. […]
(GTPγS resists hydrolysis and so accumulates on activated G proteins.)

The subject of the next assay is HIV-1 NL(AD8) virus. Kind of assay: H4DA5 cell model of virus replication (β-galactosidase reporter). Format: cell-based. Particulars: for IC50: read-out: IC50 (nM) H4DA5 cell model; for inhibitory activity EC50 level in H4DA5 cell model: stated in words. How it is done: 2. Results of Activity Assay at Cellular Level • 2.1 H4DA5 Cell Model (The Operation was Performed Under P3 Experimental Conditions) • (1) H4DA5 cells: Hela cells expressing human CD4, CCR5 receptor and reporting gene Ltr-lacZ; • (2) Appropriate amounts of H4DA5 cells were plated in 96-well plate and cultured overnight; • (3) The compound to be tested and HIV-1 NL(AD8) virus were added; • (4) Incubation for 3 days (in cell incubator at 37° C.); • (5) Virus replication was determined using β-galactosidase test kit.

For another assay, the system named is HIV-1 Ba-L virus. Kind of assay: PBMC system of virus replication model (p24 antigen). The assay is classed as cell-based. Particulars: for IC50: read-out: IC50 (nM) PBMC system of virus replication model. How it is done:
2.2 PBMC System of Virus Replication Model (The Operation was Performed Under P3 Experimental Conditions) • (1) PBMC cells were separated from the blood from two people (using Ficoll gradient separation method); • (2) the PBMC cells were stimulated using PHA and incubated for 3 days in a cell incubator at 37° C. at a density of 2×10^6 cells/ml. • (3) PBMC cells were resuspended in a RF-10 medium (RF-10/IL2) containing 100 U/mL IL-2 (30 uL RF-10/IL2 medium containing 4 times of the final concentration of the compound to be tested and 40 uL RF-10/IL2 medium containing HIV-1 Ba-L virus (1400 pfu/well) were added in the plate (200,000 cells/50 uL/well). • (4) After incubated 24 hours, RF-10/IL2 medium containing 1 time of the final concentration of the compound to be test was added in each well. After infected for 4 days, 100 ul fresh RF-10/IL2 medium containing the compound to be tested at the final concentration to replace the original medium. After incubated for 2 days, the supernatant of each well was collected, and the content of p24 was determined. • (5) The content of P24 antigen in the supernatant of each well was measured by Vironostik p24 test kit to detect the virus replication.

The mark [1] stands for this setting: Human immunodeficiency virus 1, 72 h.

Where two headings read alike, the source gives them in different places.

T1 sequence (P51681 whole entry): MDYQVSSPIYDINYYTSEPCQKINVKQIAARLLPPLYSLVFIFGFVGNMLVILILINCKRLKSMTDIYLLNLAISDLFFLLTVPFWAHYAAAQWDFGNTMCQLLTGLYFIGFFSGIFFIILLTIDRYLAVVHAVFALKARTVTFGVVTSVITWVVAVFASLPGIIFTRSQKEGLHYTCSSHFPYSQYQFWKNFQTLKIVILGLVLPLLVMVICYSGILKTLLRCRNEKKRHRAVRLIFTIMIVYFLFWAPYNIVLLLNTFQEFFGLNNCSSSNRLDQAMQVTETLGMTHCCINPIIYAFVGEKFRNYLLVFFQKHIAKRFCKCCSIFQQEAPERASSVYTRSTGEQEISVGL

For orientation: IC50 means the concentration needed to halve the response being measured. Turning to `CC(=O)N1CCC(C(=O)N(CCCN2[C@@H]3CC[C@H]2C[C@H](NC(=O)OCc2ccccc2)C3)c2ccc(C)c(Cl)c2)CC1` [Compound 8, 1-acetyl-N-(3-chloro-4-methylphenyl)-N-(3-(3-exo-benzyloxymethanamido-8-azabicyclo[3.2.1]oct-8-yl)propyl)-4-piperidinylcarboxamide], the IC50 on CCR5 was found to be 18.3 nM; with HIV-1 NL(AD8) virus (setting [1]), 220 nM. In addition, in the assay with HIV-1 NL(AD8) virus, the “inhibitory activity EC50 level in H4DA5 cell model” value is 100 nM level.
As for `CC(=O)N1CCC(C(=O)N(CCCN2[C@@H]3CC[C@H]2C[C@H](NS(=O)(=O)c2ccc(C)cc2)C3)c2ccc(C)c(Cl)c2)CC1` [Compound 9b, 1-acetyl-N-(3-chloro-4-methylphenyl)-N-(3-(3-exo-p-tolylsulfonamido-8-azabicyclo[3.2.1]oct-8-yl)propyl)-4-piperidinylcarboxamide], the IC50 at CCR5 amounted to 6 nM; in the assay with HIV-1 NL(AD8) virus (setting [1]) it was 1 nM; in the assay on HIV-1 Ba-L virus (Human immunodeficiency virus 1, BAL, PBMC), 0.42 nM. The “inhibitory activity EC50 level in H4DA5 cell model” value with HIV-1 NL(AD8) virus is listed as “nM level”. Further, the “inhibitory activity EC50 level in PBMC system of virus replication model” value in the assay with HIV-1 Ba-L virus (stated in words) is recorded as “nM level”.
The term inhibition denotes the percentage by which the read-out fell short of the control. On to `Cc1ccc(S(=O)(=O)NC2CC3CCC(C2)N3CCCN(C(=O)C2CCCCC2)c2ccc(C)c(Cl)c2)cc1` (stereo not drawn) [Compound 15a, N-(3-chloro-4-methylphenyl)-N-(3-(3-exo-(4-tolylsulfonamido)-8-azabicyclo[3.2.1]oct-8-yl)propyl)cyclohexylcarboxamide], for which the inhibition at 0.03 µM on CCR5 (compound at 30 nM, 10 nM RANTES, read-out: inhibition against CCR5 @30 nM) came to 45.2%. Further, the inhibition at 0.3 µM at CCR5 (compound at 300 nM, 10 nM RANTES, read-out: inhibition against CCR5 @300 nM) was determined as 100%.
Regarding `Cc1ccc(S(=O)(=O)N[C@@H]2C[C@H]3CC[C@@H](C2)N3CCCN(C(=O)C2CCN(S(C)(=O)=O)CC2)c2ccc(C)c(Cl)c2)cc1` [Compound 15b, N-(3-chloro-4-methylphenyl)-N-(3-(3-exo-(4-tolylsulfonamido)-8-azabicyclo[3.2.1]oct-8-yl)propyl)-1-(methylsulfonyl)-4-piperidinylcarboxamide], the IC50 at CCR5 is 2.06 nM.
For `Cc1ccc(S(=O)(=O)NC2CC3CCC(C2)N3CCCN(C(=O)OCc2ccccc2)c2ccc(C)c(Cl)c2)cc1` (stereo not drawn) [Compound 15c, 3-chloro-4-methylphenyl(3-(3-exo-(4-toluenesulfonamido)-8-azabicyclo[3.2.1]oct-8-yl)propyl)carbamic acid benzyl ester], the “inhibition against CCR5 (class symbol in IC50 column)” value (shortened to “inhibition against CCR5”) on CCR5 is listed as “++ (the compound at 300 nM has an inhibition against CCR5 of more thant 50% at 300 nM)”.
As for `Cc1ccc(S(=O)(=O)NC2CC3CCC(C2)N3CCCN(C(=O)Nc2ccccc2)c2ccc(C)c(Cl)c2)cc1` (stereo not shown) [Compound 15d], the “inhibition against CCR5” value at CCR5 is “++ (the compound at 300 nM has an inhibition against CCR5 of more thant 50% at 300 nM)”.
`Cc1ccc(S(=O)(=O)NC2CC3CCC(C2)N3CCCN(c2ccc(C)c(Cl)c2)S(=O)(=O)c2ccc(C)cc2)cc1` (stereo not drawn) [Compound 15e, N-(3-chloro-4-methylphenyl)-4-methyl-N-(3-(3-exo-(4-tolylsulfonamido)-8-azabicyclo[3.2.1]oct-8-yl)propyl)phenylsulfonamide]: at CCR5, the “inhibition against CCR5” value is “++ (the compound at 300 nM has an inhibition against CCR5 of more thant 50% at 300 nM)”.
In the case of Maraviroc [reference compound], the IC50 with HIV-1 NL(AD8) virus (Hela cells expressing human CD4, CCR5 and Ltr-lacZ, HIV-1 NL(AD8), 3 days) came out at 1.5 nM; in the assay with HIV-1 Ba-L virus (PHA-stimulated PBMC, HIV-1 Ba-L, p24), 0.35 nM.
